Assay results from patent US20250312497A1, “METHOD OF TREATING PROSTATE CANCER” (Novartis AG, priority 2022, published 2025).
Several values for one entry are separate records, joined by “and”; a condition that tells them apart may be missing. Identical values can stand only once.

Tests used:
[1] = system: PSMA-positive metastatic castration-resistant prostate cancer (mCRPC); experiment: PSMAfore phase III: radiographic progression-free survival (rPFS) by blinded independent central review per PCWG3; assay type: in vivo, human
Experimental: Radiographic progression-free survival (rPFS) based on independent central review as per PCWG3 criteria is the primary endpoint and overall survival (OS) is the key secondary endpoint for the study. The statistical design of the study is such that, to be declared positive, the study would be required to reach statistical significance on the primary analysis of rPFS.
The primary analysis of rPFS and the first interim analysis of OS were performed using all patients randomized on or before the data cutoff date of 2 Oct. 2022 using a one-sided alpha level of 2.5%. One randomized and treated patient was excluded from Full Analysis Set due to informed consent not obtained per due process (INCL1A PD).

[2] = system: metastatic castration-resistant prostate cancer; settings: cited from earlier work
[3] = system: docetaxel progressing metastatic castration-resistant prostate cancer; settings: randomized, 200 patients; P<0.0001; cited from earlier work
[4] = system: PSMA-positive metastatic castration-resistant prostate cancer; settings: cited from earlier work
[5] = system: PSMA-positive metastatic castration-resistant prostate cancer; settings: cited from earlier work; remark: listed apart in the source
mCRPC participants = settings: cited from earlier work
[6] = excretory mechanisms, kidneys (Kratochwil et al 2016); cited from earlier work
[7] = DCO 2 Oct 2022, full analysis set
[8] = primary analysis DCO 2 Oct 2022, most recent central vendor data (results update)

O=C([O-])CN1CCN(CC(=O)[O-])CCN(CC(=O)NCC2CCC(C(=O)N[C@@H](Cc3ccc4ccccc4c3)C(=O)NCCCC[C@H](NC(=O)N[C@@H](CCC(=O)O)C(=O)O)C(=O)O)CC2)CCN(CC(=O)[O-])CC1.[177Lu+3] (stereo partly drawn) [[177Lu]Lu-PSMA-617, lutetium (177Lu) vipivotide tetraxetan]
rPFS events: Death without radiographic progression [1, 7]: 6 (2.6) n(%)
rPFS events: Radiographic progression [1, 7]: 55 (23.6) n(%)
rPFS: Number of events [1, 7]: 61 (26.2%) n(%) and 61 (26.2) n(%)
risk reduction (rPFS) compared to ARDT arm [1, 7]: 58%
rPFS 75th percentile (95% CI) ([1]; DCO 2 Oct 2022, full analysis set, Kaplan-Meier): NE [11.96, NE]
estimated rPFS probability (95% CI) at 6 months [1, 8]: 69.0%
rPFS: Number of events [1, 8]: 60 (25.8%) n (%)
objective response rate in measurable disease by RECIST (CR and PR) ([2]; 27 participants with measurable disease): 56%
median overall survival ([2]; 95% CI 10.5-18.0): 13.3 months
participants with reduction of PSA of 80% or more ([2]; up to 4 cycles of 4-8 GBq every 6 weeks): 44%
participants with PSA response (reduction in PSA of at least 50%) ([2]; up to 4 cycles of 4-8 GBq every 6 weeks, post-taxane, post abiraterone/enzalutamide): 64%
proportion of patients with PSA decline >=50% [3]: 66%
complete response ([4]; RECIST 1.1 measurable target lesions, 17 of 184 patients): 9.2%
partial response ([4]; RECIST 1.1 measurable target lesions, 77 patients): 41.8%
median imaging-based progression-free survival ([4]; plus standard care, vs 3.4 months standard care): 8.7 months
median overall survival ([4]; plus standard care, vs 11.3 months standard care): 15.3 months
hazard ratio for death ([4]; vs standard care, 95% CI 0.52 to 0.74): 0.62
hazard ratio for progression or death ([4]; vs standard care, 99.2% CI 0.29 to 0.57): 0.40
TEAE anemia ([5]; VISION): 31.8%
TEAE arthralgia ([5]; VISION): 22.3%
TEAE back pain ([5]; VISION): 23.4%
TEAE constipation ([5]; VISION): 20.2%
TEAE decreased appetite ([5]; VISION): 21.2%
TEAE diarrhea ([5]; VISION): 18.9%
TEAE dry mouth ([5]; VISION): 38.8%
TEAE fatigue ([5]; VISION): 43.1%
TEAE leukopenia ([5]; VISION): 12.5%
TEAE lymphopenia ([5]; VISION): 14.2%
TEAE nausea ([5]; VISION): 35.3%
TEAE thrombocytopenia ([5]; VISION): 17.2%
TEAE vomiting ([5]; VISION): 18.9%
patients reporting treatment-emergent adverse events (TEAEs) ([5]; as of 27 Jan 2021, 519 patients): 98.1%
incidence of adverse events of grade 3 or above ([5]; as of 27 Jan 2021): 52.7%
Grade 3/4 nephrotoxicity (mCRPC participants; literature): no reports of Grade 3/4 nephrotoxicity
rate of xerostomia in treated participants (mCRPC participants; prospective study, low grade): approximately 87%
injected dose cleared within 48 hours [6]: approximately 50%
